Several values for one entry are separate records, joined by “and”; a condition that tells them apart may be missing. Equal values may be shown once.
Tests used:
SfurOBP1 = SfurOBP1 (Sogatella furcifera, UniProt V5T8N5); assay: biochemical; assay type: binding; details: for Fluorescence competitive binding assay, fluorescence intensity: OBP1, three replicate columns
Summary of the method: (§1)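 K1-NPN came from titrating 2.0 µM protein (50 mM Tris-HCl, pH 7.4) with 1-NPN. Odorants at 2-20 µM then competed against 2.0 µM protein plus 2.0 µM 1-NPN for 2 min, with excitation at 337 nm and emission recorded over 390-490 nm. IC50 values were converted to Ki via Ki = IC50/(1 + [1-NPN]/K1-NPN).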

SfurOBP11 = SfurOBP11 (Sogatella furcifera, UniProt V5T6E3); assay: biochemical; assay type: binding
Chain of SfurOBP11 (V5T6E3 entry or part of it): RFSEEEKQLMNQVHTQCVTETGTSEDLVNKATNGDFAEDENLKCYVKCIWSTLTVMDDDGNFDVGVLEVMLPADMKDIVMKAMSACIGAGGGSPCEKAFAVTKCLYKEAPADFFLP
Summary of the method: as §1

SfurOBP2 = SfurOBP2 (Sogatella furcifera, UniProt V5T759); assay: biochemical; assay type: binding
Chain of SfurOBP2 (V5T759 entry or part of it): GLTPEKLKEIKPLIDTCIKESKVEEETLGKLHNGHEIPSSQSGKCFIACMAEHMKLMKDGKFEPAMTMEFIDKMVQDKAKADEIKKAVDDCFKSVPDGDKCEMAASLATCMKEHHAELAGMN
Summary of the method: as §1

SfurOBP3 = SfurOBP3 (Sogatella furcifera, UniProt V5T818); assay: biochemical; assay type: binding; details: for Fluorescence competitive binding assay, fluorescence intensity: OBP3, three replicate columns
Chain of SfurOBP3 (V5T818 entry or part of it): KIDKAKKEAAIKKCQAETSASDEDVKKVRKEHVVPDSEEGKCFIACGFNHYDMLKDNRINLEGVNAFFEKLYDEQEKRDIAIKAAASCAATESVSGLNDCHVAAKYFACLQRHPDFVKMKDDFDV
Summary of the method: as §1

S. furcifera adults = assay: Y-tube olfactometer behavioral trials; assay type: in vivo, Sogatella furcifera; details: odorant 50 µL/L vs hexane; adults
Summary of the method: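 Single S. furcifera adults (2 days post-emergence, starved 0.5 h) chose between odorant (100 µL of 50 µL/L on filter paper) and hexane control in a glass Y-tube, charcoal-filtered humidified air 300 mL/min per arm, 25 ± 1 °C, 50% RH. Choice scored if insect passed half an arm and stayed >1 min within 10 min; 45 insects per compound, chi-squared test.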

Chain of SfurOBP1 (V5T8N5 entry or part of it): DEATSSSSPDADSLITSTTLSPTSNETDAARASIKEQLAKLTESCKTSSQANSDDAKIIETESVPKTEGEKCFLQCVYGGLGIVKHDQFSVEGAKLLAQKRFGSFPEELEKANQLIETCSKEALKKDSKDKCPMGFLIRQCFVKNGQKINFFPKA

In the case of `OC1CCCCC1` [cyclohexanol], the IC50 (SfurOBP1) is reported as greater than 20 µM, the “Fluorescence competitive binding assay, fluorescence intensity” value (SfurOBP1; ligand concentration 2 (μM)) is reported as 5844 and 5673 and 6371 and the “Fluorescence competitive binding assay, fluorescence intensity” value (SfurOBP1; ligand concentration 4 (μM)) is reported as 9311 and 8690 and 9932. The “Fluorescence competitive binding assay, fluorescence intensity” value (SfurOBP1; ligand concentration 6 (μM)) was 6443 and 7058 and 7039, the “Fluorescence competitive binding assay, fluorescence intensity” value (SfurOBP1; ligand concentration 8 (μM)) was 6837 and 7313 and 7729 and the “Fluorescence competitive binding assay, fluorescence intensity” value (SfurOBP1; ligand concentration 10 (μM)) was 8238 and 7697 and 7236. For the same compound, the “Fluorescence competitive binding assay, fluorescence intensity” value (SfurOBP1; ligand concentration 12 (μM)) was 6489 and 6472 and 7355, the “Fluorescence competitive binding assay, fluorescence intensity” value (SfurOBP1; ligand concentration 14 (μM)) was 7069 and 6354 and 7092 and the “Fluorescence competitive binding assay, fluorescence intensity” value (SfurOBP1; ligand concentration 16 (μM)) was 6030 and 6324 and 7260. For the same compound, the “Fluorescence competitive binding assay, fluorescence intensity” value (SfurOBP1; ligand concentration 18 (μM)) was 9356 and 7906 and 7474, the “Fluorescence competitive binding assay, fluorescence intensity” value (SfurOBP1; ligand concentration 20 (μM)) was 8046 and 8689 and 8368 and the IC50 (SfurOBP11) was greater than 20 µM. For the same compound, the “Fluorescence intensity, fluorescence competitive binding assay, OBP11” value (shortened to “Fluorescence intensity … OBP11”) (SfurOBP11; ligand concentration 2, replicate 1) was 24375, the “Fluorescence intensity … OBP11” value (SfurOBP11; ligand concentration 2, replicate 2) was 24650 and the “Fluorescence intensity … OBP11” value (SfurOBP11; ligand concentration 2, replicate 3) was 24939. For the same compound, the “Fluorescence intensity … OBP11” value (SfurOBP11; ligand concentration 4, replicate 1) was 24494, the “Fluorescence intensity … OBP11” value (SfurOBP11; ligand concentration 4, replicate 2) was 24823 and the “Fluorescence intensity … OBP11” value (SfurOBP11; ligand concentration 4, replicate 3) was 24654. The “Fluorescence intensity … OBP11” value (SfurOBP11; ligand concentration 6, replicate 1) was 24316, the “Fluorescence intensity … OBP11” value (SfurOBP11; ligand concentration 6, replicate 2) was 24699 and the “Fluorescence intensity … OBP11” value (SfurOBP11; ligand concentration 6, replicate 3) was 24500. For the same compound, the “Fluorescence intensity … OBP11” value (SfurOBP11; ligand concentration 8, replicate 1) was 24760, the “Fluorescence intensity … OBP11” value (SfurOBP11; ligand concentration 8, replicate 2) was 24220 and the “Fluorescence intensity … OBP11” value (SfurOBP11; ligand concentration 8, replicate 3) was 24499. The “Fluorescence intensity … OBP11” value (SfurOBP11; ligand concentration 10, replicate 1) was 22885, the “Fluorescence intensity … OBP11” value (SfurOBP11; ligand concentration 10, replicate 2) was 23988 and the “Fluorescence intensity … OBP11” value (SfurOBP11; ligand concentration 10, replicate 3) was 24498. For the same compound, the “Fluorescence intensity … OBP11” value (SfurOBP11; ligand concentration 12, replicate 1) was 23691, the “Fluorescence intensity … OBP11” value (SfurOBP11; ligand concentration 12, replicate 2) was 23225 and the “Fluorescence intensity … OBP11” value (SfurOBP11; ligand concentration 12, replicate 3) was 24428. For the same compound, the “Fluorescence intensity … OBP11” value (SfurOBP11; ligand concentration 14, replicate 1) was 22556, the “Fluorescence intensity … OBP11” value (SfurOBP11; ligand concentration 14, replicate 2) was 23123 and the “Fluorescence intensity … OBP11” value (SfurOBP11; ligand concentration 14, replicate 3) was 22199. For the same compound, the “Fluorescence intensity … OBP11” value (SfurOBP11; ligand concentration 16, replicate 1) was 21391, the “Fluorescence intensity … OBP11” value (SfurOBP11; ligand concentration 16, replicate 2) was 22093 and the “Fluorescence intensity … OBP11” value (SfurOBP11; ligand concentration 16, replicate 3) was 21606. For the same compound, the “Fluorescence intensity … OBP11” value (SfurOBP11; ligand concentration 18, replicate 1) was 23329, the “Fluorescence intensity … OBP11” value (SfurOBP11; ligand concentration 18, replicate 2) was 23356 and the “Fluorescence intensity … OBP11” value (SfurOBP11; ligand concentration 18, replicate 3) was 23748. For the same compound, the “Fluorescence intensity … OBP11” value (SfurOBP11; ligand concentration 20, replicate 1) was 23863, the “Fluorescence intensity … OBP11” value (SfurOBP11; ligand concentration 20, replicate 2) was 23927 and the “Fluorescence intensity … OBP11” value (SfurOBP11; ligand concentration 20, replicate 3) was 23769. For the same compound, the IC50 (SfurOBP2) was greater than 20 µM, the “Fluorescence competitive binding assay, OBP2 (raw fluorescence reading)” value (SfurOBP2; ligand concentration 2 (unit not given), replicate column 1 of 3) was 20258 and the “Fluorescence competitive binding assay, OBP2 (raw fluorescence reading)” value (SfurOBP2; ligand concentration 2 (unit not given), replicate column 2 of 3) was 18511. The “Fluorescence competitive binding assay, OBP2 (raw fluorescence reading)” value (SfurOBP2; ligand concentration 2 (unit not given), replicate column 3 of 3) was 18768, the “Fluorescence competitive binding assay, OBP2 (raw fluorescence reading)” value (SfurOBP2; ligand concentration 4 (unit not given), replicate column 1 of 3) was 17006 and the “Fluorescence competitive binding assay, OBP2 (raw fluorescence reading)” value (SfurOBP2; ligand concentration 4 (unit not given), replicate column 2 of 3) was 17312. The “Fluorescence competitive binding assay, OBP2 (raw fluorescence reading)” value (SfurOBP2; ligand concentration 4 (unit not given), replicate column 3 of 3) was 19296, the “Fluorescence competitive binding assay, OBP2 (raw fluorescence reading)” value (SfurOBP2; ligand concentration 6 (unit not given), replicate column 1 of 3) was 17760 and the “Fluorescence competitive binding assay, OBP2 (raw fluorescence reading)” value (SfurOBP2; ligand concentration 6 (unit not given), replicate column 2 of 3) was 19185. The “Fluorescence competitive binding assay, OBP2 (raw fluorescence reading)” value (SfurOBP2; ligand concentration 6 (unit not given), replicate column 3 of 3) was 18943, the “Fluorescence competitive binding assay, OBP2 (raw fluorescence reading)” value (SfurOBP2; ligand concentration 8 (unit not given), replicate column 1 of 3) was 16983 and the “Fluorescence competitive binding assay, OBP2 (raw fluorescence reading)” value (SfurOBP2; ligand concentration 8 (unit not given), replicate column 2 of 3) was 16921. The “Fluorescence competitive binding assay, OBP2 (raw fluorescence reading)” value (SfurOBP2; ligand concentration 8 (unit not given), replicate column 3 of 3) was 18381, the “Fluorescence competitive binding assay, OBP2 (raw fluorescence reading)” value (SfurOBP2; ligand concentration 10 (unit not given), replicate column 1 of 3) was 16551 and the “Fluorescence competitive binding assay, OBP2 (raw fluorescence reading)” value (SfurOBP2; ligand concentration 10 (unit not given), replicate column 2 of 3) was 16106. For the same compound, the “Fluorescence competitive binding assay, OBP2 (raw fluorescence reading)” value (SfurOBP2; ligand concentration 10 (unit not given), replicate column 3 of 3) was 17116, the “Fluorescence competitive binding assay, OBP2 (raw fluorescence reading)” value (SfurOBP2; ligand concentration 12 (unit not given), replicate column 1 of 3) was 12653 and the “Fluorescence competitive binding assay, OBP2 (raw fluorescence reading)” value (SfurOBP2; ligand concentration 12 (unit not given), replicate column 2 of 3) was 16542. The “Fluorescence competitive binding assay, OBP2 (raw fluorescence reading)” value (SfurOBP2; ligand concentration 12 (unit not given), replicate column 3 of 3) was 15003, the “Fluorescence competitive binding assay, OBP2 (raw fluorescence reading)” value (SfurOBP2; ligand concentration 14 (unit not given), replicate column 1 of 3) was 14815 and the “Fluorescence competitive binding assay, OBP2 (raw fluorescence reading)” value (SfurOBP2; ligand concentration 14 (unit not given), replicate column 2 of 3) was 15068. For the same compound, the “Fluorescence competitive binding assay, OBP2 (raw fluorescence reading)” value (SfurOBP2; ligand concentration 14 (unit not given), replicate column 3 of 3) was 14859, the “Fluorescence competitive binding assay, OBP2 (raw fluorescence reading)” value (SfurOBP2; ligand concentration 16 (unit not given), replicate column 1 of 3) was 15306 and the “Fluorescence competitive binding assay, OBP2 (raw fluorescence reading)” value (SfurOBP2; ligand concentration 16 (unit not given), replicate column 2 of 3) was 13071. For the same compound, the “Fluorescence competitive binding assay, OBP2 (raw fluorescence reading)” value (SfurOBP2; ligand concentration 16 (unit not given), replicate column 3 of 3) was 13046, the “Fluorescence competitive binding assay, OBP2 (raw fluorescence reading)” value (SfurOBP2; ligand concentration 18 (unit not given), replicate column 1 of 3) was 15697 and the “Fluorescence competitive binding assay, OBP2 (raw fluorescence reading)” value (SfurOBP2; ligand concentration 18 (unit not given), replicate column 2 of 3) was 16234. For the same compound, the “Fluorescence competitive binding assay, OBP2 (raw fluorescence reading)” value (SfurOBP2; ligand concentration 18 (unit not given), replicate column 3 of 3) was 16085, the “Fluorescence competitive binding assay, OBP2 (raw fluorescence reading)” value (SfurOBP2; ligand concentration 20 (unit not given), replicate column 1 of 3) was 15959 and the “Fluorescence competitive binding assay, OBP2 (raw fluorescence reading)” value (SfurOBP2; ligand concentration 20 (unit not given), replicate column 2 of 3) was 14904. The “Fluorescence competitive binding assay, OBP2 (raw fluorescence reading)” value (SfurOBP2; ligand concentration 20 (unit not given), replicate column 3 of 3) was 13122, the IC50 (SfurOBP3) was greater than 20 µM and the “Fluorescence competitive binding assay, fluorescence intensity” value (SfurOBP3; ligand concentration 2) was 73467 and 78493 and 77746. The “Fluorescence competitive binding assay, fluorescence intensity” value (SfurOBP3; ligand concentration 4) was 78452 and 70026 and 82856, the “Fluorescence competitive binding assay, fluorescence intensity” value (SfurOBP3; ligand concentration 6) was 79407 and 77940 and 78195 and the “Fluorescence competitive binding assay, fluorescence intensity” value (SfurOBP3; ligand concentration 8) was 71546 and 83168 and 84706. The “Fluorescence competitive binding assay, fluorescence intensity” value (SfurOBP3; ligand concentration 10) was 73852 and 75338 and 78193, the “Fluorescence competitive binding assay, fluorescence intensity” value (SfurOBP3; ligand concentration 12) was 65457 and 72548 and 71432 and the “Fluorescence competitive binding assay, fluorescence intensity” value (SfurOBP3; ligand concentration 14) was 60072 and 60001 and 71583. The “Fluorescence competitive binding assay, fluorescence intensity” value (SfurOBP3; ligand concentration 16) was 61622 and 57596 and 60550, the “Fluorescence competitive binding assay, fluorescence intensity” value (SfurOBP3; ligand concentration 18) was 75606 and 79879 and 73633 and the “Fluorescence competitive binding assay, fluorescence intensity” value (SfurOBP3; ligand concentration 20) was 63397 and 61447 and 55682. For the same compound, the “number of insects choosing hexane arm” value (S. furcifera adults) was 12, the “number of insects choosing volatilies arm” value (S. furcifera adults) was 7 and the “number of insects failed (no choice)” value (S. furcifera adults) was 21.

Reference: publication PMC6409085, “Three odorant-binding proteins are involved in the behavioral response of Sogatella furcifera to rice plant volatiles” (PeerJ, 2019)
